Test results taken from paper PMC7904550, “Application of grouping and read-across for the evaluation of parabens of different chain lengths with a particular focus on endocrine properties” (Archives of Toxicology, 2021).
Like-named read-outs stand apart in the source and are kept apart here. Marks after values point to notes of the source that are not given here.

Tests used:
Wistar rats [1] = experiment: Higher-tier studies taken together (OECD TG 408, 414, 421/422, 443): NOAEL; conditions: over all higher-tier studies
Experimental: All in vivo studies were conducted as oral gavage studies, selecting the oral route as most appropriate route of administration to reflect the worst-case exposure scenario. […] The OECD TG 443 included mating of first generation (F1) offspring to produce a second generation (F2), and the DIT and DNT cohorts.

mammalian cells = conditions: OECD 476; ref ECHA dissemination portal; cited from earlier work
rats = conditions: OECD 478; ref ECHA dissemination portal; cited from earlier work
Wistar rats [2] = conditions: ref Food and Drug Research Laboratories 1972, cited from earlier work; for NOAEL, developmental toxicity: similar to OECD 414, conducted 1972, highest dose tested, GD 6–15
[3] = Acid dissociation constant (pKa); assay type: physicochemical; conditions: OECD TG 112; read-out: pKa
Text: Generally, these parabens have very similar physico-chemical properties.

Wistar rats [4] = experiment: Reproductive toxicity screening combined with 28-day repeated dose toxicity study (OECD TG 422); assay type: in vivo, rat; conditions: for NOAEL, reproductive toxicity: OECD 422 v 2016, oral gavage
Text: Healthy and specific pathogen-free male and female (non-pregnant and nulliparous) Wistar Crl: WI(Han) rats were obtained from Charles River Laboratories (Germany). […] Upon arrival at BSL BIOSERVICE, the animals underwent an acclimatisation period of at least 5 days, and they were approximately 15–16 weeks old at the onset of the treatment period.

COC(=O)c1ccc(O)cc1 [Methyl paraben, Methyl 4-hydroxybenzoate]
NOAEL: Accessory sex organs HP (Wistar rats [1]): 1000 / 1000 mg/kg bw/day
NOAEL: Adrenals HP (Wistar rats [1]): 1000 / 1000 mg/kg bw/day
NOAEL: Adrenals weight (Wistar rats [1]): 1000 / 1000 mg/kg bw/day
NOAEL: Age at balano-preputial separation (Wistar rats [1]): 1000 / 1000 mg/kg bw/day
NOAEL: Age at vaginal opening (Wistar rats [1]): 1000 / 1000 mg/kg bw/day
NOAEL: Anogenital distance (Wistar rats [1]): 1000 / 1000 mg/kg bw/day
NOAEL: Auditory startle (Wistar rats [1]): 1000 / 1000 mg/kg bw/day
NOAEL: Brain HP (Wistar rats [1]): 1000 / 1000 mg/kg bw/day
NOAEL: Brain morphometric evaluation (Wistar rats [1]): 1000 / 1000 mg/kg bw/day
NOAEL: Brain weight (Wistar rats [1]): 1000 / 1000 mg/kg bw/day
NOAEL: Cervix HP (Wistar rats [1]): 1000 / 1000 mg/kg bw/day
NOAEL: Coagulating gland HP (Wistar rats [1]): 1000 / 1000 mg/kg bw/day
NOAEL: Coagulating gland weight (Wistar rats [1]): 1000 / 1000 mg/kg bw/day
NOAEL: Colloid area (thyroid HP) (Wistar rats [1]): 1000 / 1000 mg/kg bw/day
NOAEL: Dystocia (Wistar rats [1]): 1000 / 1000 mg/kg bw/day
NOAEL: Epididymis HP (Wistar rats [1]): 1000 / 1000 mg/kg bw/day
NOAEL: Epididymis weight (Wistar rats [1]): 1000 / 1000 mg/kg bw/day
NOAEL: Fertility (Wistar rats [1]): 1000 / 1000 mg/kg bw/day
NOAEL: Foetal development (Wistar rats [1]): 1000 / 1000 mg/kg bw/day
NOAEL: Functional observation battery (Wistar rats [1]): 1000 / 1000 mg/kg bw/day
NOAEL: Genital abnormalities (Wistar rats [1]): 1000 / 1000 mg/kg bw/day
NOAEL: Gestation length (Wistar rats [1]): 1000 / 1000 mg/kg bw/day
NOAEL: Litter / pup weight (Wistar rats [1]): 1000 / 1000 mg/kg bw/day
NOAEL: Litter size (Wistar rats [1]): 1000 / 1000 mg/kg bw/day
NOAEL: Litter viability (Wistar rats [1]): 1000 / 1000 mg/kg bw/day
NOAEL: Liver weight (Wistar rats [1]): 1000 / 1000 mg/kg bw/day
NOAEL: Mammary gland HP; females (Wistar rats [1]): 1000 / 1000 mg/kg bw/day
NOAEL: Mammary gland HP; males (Wistar rats [1]): 1000 / 1000 mg/kg bw/day
NOAEL: Motor activity (Wistar rats [1]): 1000 / 1000 mg/kg bw/day
NOAEL: Nipple development (Wistar rats [1]): 1000 / 1000 mg/kg bw/day
NOAEL: No. of implantations, corpora lutea (Wistar rats [1]): 1000 / 1000 mg/kg bw/day
NOAEL: No. of live births (Wistar rats [1]): 1000 / 1000 mg/kg bw/day
NOAEL: No. of ovarian follicles (Wistar rats [1]): 1000 / 1000 mg/kg bw/day
NOAEL: Oestrus cyclicity (Wistar rats [1]): 1000 / 1000 mg/kg bw/day
NOAEL: Offspring: learning & memory (Wistar rats [1]): 1000 / 1000 mg/kg bw/day
NOAEL: Ovary HP (Wistar rats [1]): 1000 / 1000 mg/kg bw/day
NOAEL: Ovary weight (Wistar rats [1]): 1000 / 1000 mg/kg bw/day
NOAEL: Oviduct HP (Wistar rats [1]): 1000 / 1000 mg/kg bw/day
NOAEL: Pituitary HP (Wistar rats [1]): 1000 / 1000 mg/kg bw/day
NOAEL: Pituitary weight (Wistar rats [1]): 1000 / 1000 mg/kg bw/day
NOAEL: Postimplantation loss (Wistar rats [1]): 1000 / 1000 mg/kg bw/day
NOAEL: Pre-implantation loss (Wistar rats [1]): 1000 / 1000 mg/kg bw/day
NOAEL: Presence of anomalies (Wistar rats [1]): 1000 / 1000 mg/kg bw/day
NOAEL: Prostate HP (Wistar rats [1]): 1000 / 1000 mg/kg bw/day
NOAEL: Prostate weight (Wistar rats [1]): 1000 / 1000 mg/kg bw/day
NOAEL: Pup development (Wistar rats [1]): 1000 / 1000 mg/kg bw/day
NOAEL: Reproduction (Wistar rats [1]): 1000 / 1000 mg/kg bw/day
NOAEL: Seminal vesicles HP (Wistar rats [1]): 1000 / 1000 mg/kg bw/day
NOAEL: Seminal vesicles weight (Wistar rats [1]): 1000 / 1000 mg/kg bw/day
NOAEL: Testis HP (Wistar rats [1]): 1000 / 1000 mg/kg bw/day
NOAEL: Testis weight (Wistar rats [1]): 1000 / 1000 mg/kg bw/day
NOAEL: Thyroid HP (Wistar rats [1]): 1000 / 1000 mg/kg bw/day
NOAEL: Thyroid stimulating hormone level (Wistar rats [1]): 1000 / 1000 mg/kg bw/day
NOAEL: Thyroid weight (Wistar rats [1]): 1000 / 1000 mg/kg bw/day
NOAEL: Time to mating (Wistar rats [1]): 1000 / 1000 mg/kg bw/day
NOAEL: Triiodothyronine / thyroxine level (Wistar rats [1]): 1000 / 1000 mg/kg bw/day
NOAEL: Uterus HP (with cervix) (Wistar rats [1]): 1000 / 1000 mg/kg bw/day
NOAEL: Uterus weight (with cervix) (Wistar rats [1]): 1000 / 1000 mg/kg bw/day
NOAEL: Vagina HP (Wistar rats [1]): 1000 / 1000 mg/kg bw/day
NOAEL: Vaginal smears (Wistar rats [1]): 1000 / 1000 mg/kg bw/day
Mutagenicity in mammalian cells classification (mammalian cells): Not mutagenic [c] (OECD 476; 2019)
Genetic toxicity in vivo (rats) classification (rats): Not clastogenic (OECD 478; 1974) [d]
NOAEL: No. of foetal deaths; viable foetuses (Wistar rats [2]; TG 414-like, highest dose): 550 mg/kg bw/day
No. of foetal deaths; viable foetuses (Wistar rats [2]; TG 414-like, up to 550 mg/kg bw/day): NAE / NAE
Triiodothyronine / thyroxine level (Wistar rats [2]; dams, TG 414-like, up to 550 mg/kg bw/day): NAE / NAE (dams)
NOAEL, developmental toxicity (Wistar rats [2]): NOAEL: 550 (highest dose tested) (similar to OECD 414; conducted 1972) mg/kg body weight/day
NOAEL, developmental toxicity (Wistar rats [2]; listed as methyl paraben): 550 mg/kg body weight/day
pKa [3]: 8.4
NOAEL, reproductive toxicity (Wistar rats [4]): NOAEL: 1000 (OECD 422; v 2016) mg/kg body weight/day
NOAEL, reproductive toxicity (Wistar rats [4]; listed as methyl paraben): 1000 mg/kg body weight/day
Treatment-related effects in parental animals or pups (Wistar rats [4]; OECD TG 422): no treatment-related effects
Adrenals HP (Wistar rats [4]; P0, F1): NAE / NAE
Adrenals weight (Wistar rats [4]; P0, F1): NAE / NAE
Brain weight (Wistar rats [4]; P0, F1): NAE / NAE
Coagulating gland HP (Wistar rats [4]; P0, F1): NAE / NAE
Epididymis HP (Wistar rats [4]; P0, F1): NAE / NAE
Epididymis weight (Wistar rats [4]; P0, F1): NAE / NAE
Fertility (Wistar rats [4]; P0, F1): NAE / NAE
Foetal development (Wistar rats [4]; P0, F1): NAE / NAE
Gestation length (Wistar rats [4]; P0, F1): NAE / NAE
Litter size (Wistar rats [4]; P0, F1): NAE / NAE
Litter viability (Wistar rats [4]; P0, F1): NAE / NAE
Liver weight (Wistar rats [4]; P0, F1): NAE / NAE
Mammary gland HP; males (Wistar rats [4]; P0, F1): NAE / NAE
Nipple development (Wistar rats [4]; P0, F1): NAE / NAE
No. of implantations, corpora lutea (Wistar rats [4]; P0, F1): NAE / NAE
No. of live births (Wistar rats [4]; P0, F1): NAE / NAE
Oestrus cyclicity (Wistar rats [4]; P0, F1): NAE / NAE
Ovary HP (Wistar rats [4]; P0, F1): NAE / NAE
Ovary weight (Wistar rats [4]; P0, F1): NAE / NAE
Postimplantation loss (Wistar rats [4]; P0, F1): NAE / NAE
Pre-implantation loss (Wistar rats [4]; P0, F1): NAE / NAE
Presence of anomalies (external, visceral, skeletal) (Wistar rats [4]; P0, F1): NAE / NAE
Prostate HP (Wistar rats [4]; P0, F1): NAE / NAE
Prostate weight (Wistar rats [4]; P0, F1): NAE / NAE
Reproduction (Wistar rats [4]; P0, F1): NAE / NAE
Seminal vesicles HP (Wistar rats [4]; P0, F1): NAE / NAE
Seminal vesicles weight (Wistar rats [4]; P0, F1): NAE / NAE
Testis HP (Wistar rats [4]; P0, F1): NAE / NAE
Testis weight (Wistar rats [4]; P0, F1): NAE / NAE
Thyroid stimulating hormone level (Wistar rats [4]; P0, F1): NAE / NAE
Time to mating (Wistar rats [4]; P0, F1): NAE / NAE
Triiodothyronine / thyroxine level (Wistar rats [4]; P0, F1): NAE / NAE
Uterus HP (with cervix) (Wistar rats [4]; P0, F1): NAE / NAE
Uterus weight (with cervix) (Wistar rats [4]; P0, F1): NAE / NAE
Vagina HP (Wistar rats [4]; P0, F1): NAE / NAE
Vaginal smears (Wistar rats [4]; P0, F1): NAE / NAE
